Measurements taken from patent US6770597B2, “Benzohydrazide derivatives as herbicides and desiccant compositions containing them” (Ishihara Sangyo Kaisha, Ltd., priority 2002, dated 2004).

Assays:
Assay type in all cases: in vivo
[1] = tested on: ivyleaf morningglory (Ipomoea hederacea, IPOHE); experiment: Greenhouse herbicide screen, pre-emerge application, phytotoxicity rating; settings: PRE emergent, 14 days after application, rating scale 0-100
From the text: (§1) A standard greenhouse herbicide activity screening system was used to evaluate the herbicidal efficacy and crop safety of these test compounds. Seven broadleaf weed species including redroot pigweed (Amaranthus retrofiexus, AMARE), velvetleaf (Abutilon theophrasti, ABUTH), sicklepod (Cassia obtusifolia, CASOB), ivyleaf morningglory (Ipomoea hederacea, IPOHE), lambsquarters (Chenopodium album, CHEAL), common ragweed (Ambrosia artemisiifolia L., AMBEL), and cocklebur (Xanthium strumarium, XANST) were used as test species. Four grass weed species including green foxtail (Setaria viridis, SETVI), barnyardgrass (Echinochloa crus-galli, ECHCG), johnsongrass (Sorghum halepense, SORHA), and large crabgrass (Digitaria sanguinalis, DIGSA) were also used. In addition, four crop species, field corn (Zea mays L., var. Dekalb 535, CORN), soybean (Glycine max L., var. Pella 86, SOY), upland rice (Oryza sp., var.Cocodrie, RICE) and wheat (Triticum aestivum L.) were included.
(§2) All plants were grown in 10 cm square plastic pots which were filled with a sandy loam soil mix. For pre-emerge tests, seeds were planted one day prior to application of the test compounds. For post-emerge tests, seeds were planted 8-21 days prior to the test to allow emergence and good foliage development prior to application of the test substances. At the time of the post-emerge application, plants of all species were usually at the 2-3 leaf stage of development.
(§3) All test compounds were dissolved in acetone and applied to the test units in a volume of 187 l/ha. Test materials were applied at rates ranging from 15 g ai/ha to 1000 g ai/ha using a track sprayer equipped with a TJ8001E even flow flat fan spray nozzle. Plants were arranged on a shelf so that the top of the canopy (post-emerge) or top of the soil surface (pre-emerge) was 40-45 cm below the nozzle. Pressurized air was used to force the test solution through the nozzle as it was mechanically advanced (via electrically driven chain drive) over the top of all test plants/pots. This application simulates a typical commercial field herbicide application.
(§4) Pre-emergence tests were top watered immediately after treatment to incorporate the test materials, then routinely top-watered for normal growth. Post-emerge test units were always bottom-watered.
(§5) At 14 days after application of the test materials, phytotoxicity ratings were recorded. A rating scale of 0-100 was used as previously described in Research Methods in Weed Science, 2nd edition, B. Truelove, Ed., Southern Weed Science Society, Auburn University, Auburn, Ala., 1977. Briefly, “0” corresponds to no damage and “100” corresponds to complete death of all plants in the test unit. This scale was used both to determine efficacy against weed species and damage to crop species. Herbicide activity data for various compounds of this invention, which are shown by compound No. in Tables 1-12, are shown in Tables 13 and 14.

[2] = tested on: common ragweed (Ambrosia artemisiifolia L., AMBEL); experiment: as above; settings: PRE emergent, 14 days after application, rating scale 0-100
From the text: as §1, §2, §3, §4, §5

[3] = tested on: sicklepod (Cassia obtusifolia, CASOB); experiment: as above; settings: PRE emergent, 14 days after application, rating scale 0-100
From the text: as §1, §2, §3, §4, §5

[4] = tested on: cocklebur (Xanthium strumarium, XANST); experiment: as above; settings: PRE emergent, 14 days after application, rating scale 0-100
From the text: as §1, §2, §3, §4, §5

[5] = tested on: barnyardgrass (Echinochloa crus-galli, ECHCG); experiment: as above; settings: PRE emergent, 14 days after application, rating scale 0-100
From the text: as §1, §2, §3, §4, §5

[6] = tested on: johnsongrass (Sorghum halepense, SORHA); experiment: as above; settings: PRE emergent, 14 days after application, rating scale 0-100
From the text: as §1, §2, §3, §4, §5

[7] = tested on: green foxtail (Setaria viridis, SETVI); experiment: as above; settings: PRE emergent, 14 days after application, rating scale 0-100
From the text: as §1, §2, §3, §4, §5

[8] = tested on: velvetleaf (Abutilon theophrasti, ABUTH); experiment: as above; settings: PRE emergent, 14 days after application, rating scale 0-100
From the text: as §1, §2, §3, §4, §5

[9] = tested on: redroot pigweed (Amaranthus retrofiexus, AMARE); experiment: as above; settings: PRE emergent, 14 days after application, rating scale 0-100
From the text: as §1, §2, §3, §4, §5

[10] = tested on: large crabgrass (Digitaria sanguinalis, DIGSA); experiment: as above; settings: PRE emergent, 14 days after application, rating scale 0-100
From the text: as §1, §2, §3, §4, §5

[11] = tested on: lambsquarters (Chenopodium album, CHEAL); experiment: as above; settings: PRE emergent, 14 days after application, rating scale 0-100
From the text: as §1, §2, §3, §4, §5

[12] = tested on: field corn (Zea mays L., var. Dekalb 535, CORN); experiment: Greenhouse herbicide screen, pre-emerge application, crop damage rating; settings: PRE emergent, 14 days after application, rating scale 0-100
From the text: as §1, §2, §3, §4, §5

[13] = tested on: upland rice (Oryza sp., var.Cocodrie, RICE); experiment: as above; settings: PRE emergent, 14 days after application, rating scale 0-100
From the text: as §1, §2, §3, §4, §5

[14] = tested on: field corn (Zea mays L., var. Dekalb 535, CORN); experiment: Greenhouse herbicide screen, post-emerge application, crop damage rating; settings: POST emergent, 14 days after application, scale 0-100
From the text: as §1, §2, §3, §4, §5

[15] = tested on: upland rice (Oryza sp., var.Cocodrie, RICE); experiment: as above; settings: POST emergent, 14 days after application, scale 0-100
From the text: as §1, §2, §3, §4, §5

[16] = tested on: ivyleaf morningglory (Ipomoea hederacea, IPOHE); experiment: Greenhouse herbicide screen, post-emerge application, phytotoxicity rating; settings: POST emergent, 14 days after application, scale 0-100
From the text: as §1, §2, §3, §4, §5

[17] = tested on: common ragweed (Ambrosia artemisiifolia L., AMBEL); experiment: as above; settings: POST emergent, 14 days after application, scale 0-100
From the text: as §1, §2, §3, §4, §5

[18] = tested on: sicklepod (Cassia obtusifolia, CASOB); experiment: as above; settings: POST emergent, 14 days after application, scale 0-100
From the text: as §1, §2, §3, §4, §5

[19] = tested on: cocklebur (Xanthium strumarium, XANST); experiment: as above; settings: POST emergent, 14 days after application, scale 0-100
From the text: as §1, §2, §3, §4, §5

[20] = tested on: barnyardgrass (Echinochloa crus-galli, ECHCG); experiment: as above; settings: POST emergent, 14 days after application, scale 0-100
From the text: as §1, §2, §3, §4, §5

[21] = tested on: johnsongrass (Sorghum halepense, SORHA); experiment: as above; settings: POST emergent, 14 days after application, scale 0-100
From the text: as §1, §2, §3, §4, §5

[22] = tested on: green foxtail (Setaria viridis, SETVI); experiment: as above; settings: POST emergent, 14 days after application, scale 0-100
From the text: as §1, §2, §3, §4, §5

[23] = tested on: velvetleaf (Abutilon theophrasti, ABUTH); experiment: as above; settings: POST emergent, 14 days after application, scale 0-100
From the text: as §1, §2, §3, §4, §5

[24] = tested on: redroot pigweed (Amaranthus retrofiexus, AMARE); experiment: as above; settings: POST emergent, 14 days after application
From the text: as §1, §2, §3, §4, §5

[25] = tested on: large crabgrass (Digitaria sanguinalis, DIGSA); experiment: as above; settings: POST emergent, 14 days after application, scale 0-100
From the text: as §1, §2, §3, §4, §5

[26] = tested on: lambsquarters (Chenopodium album, CHEAL); experiment: as above; settings: POST emergent, 14 days after application, scale 0-100
From the text: as §1, §2, §3, §4, §5

[27] = 63 g ai/ha, scale 0-100 (0 no damage, 100 complete death)

CC(=NN=C(OC(=O)C(Cl)Cl)c1cc(-n2c(=O)cc(C(F)(F)F)n(C)c2=O)c(F)cc1Cl)C(C)(C)C [Compound 5-4]
phytotoxicity rating IPOHE ([1]; 63 g ai/ha): 100 | phytotoxicity rating AMBEL ([2]; 63 g ai/ha): 70 | phytotoxicity rating CASOB ([3]; 63 g ai/ha): 30 | phytotoxicity rating XANST ([4]; 63 g ai/ha): 40 | phytotoxicity rating ECHCG ([5]; 63 g ai/ha): 40 | phytotoxicity rating SORHA ([6]; 63 g ai/ha): 85 | phytotoxicity rating SETVI ([7]; 63 g ai/ha): 50 | phytotoxicity rating ABUTH ([8]; 63 g ai/ha): 100 | phytotoxicity rating AMARE ([9]; 63 g ai/ha): 100 | phytotoxicity rating DIGSA ([10]; 63 g ai/ha): 55 | phytotoxicity rating CHEAL ([11]; 63 g ai/ha): 100 | crop damage rating CORN ([12]; 63 g ai/ha): 10 | crop damage rating RICE ([13]; 63 g ai/ha): 55 | crop damage rating CORN ([14]; 63 g ai/ha): 60 | crop damage rating RICE ([15]; 63 g ai/ha): 10 | phytotoxicity rating IPOHE ([16]; 63 g ai/ha): 100 | phytotoxicity rating AMBEL ([17]; 63 g ai/ha): 95 | phytotoxicity rating CASOB ([18]; 63 g ai/ha): 50 | phytotoxicity rating XANST ([19]; 63 g ai/ha): 65 | phytotoxicity rating ECHCO ([20]; 63 g ai/ha): 90 | phytotoxicity rating SORHA ([21]; 63 g ai/ha): 30 | phytotoxicity rating SETVI ([22]; 63 g ai/ha): 55 | phytotoxicity rating ABUTH ([23]; 63 g ai/ha): 99 | phytotoxicity rating AMARE [24, 27]: 95 | phytotoxicity rating DIGSA ([25]; 63 g ai/ha): 75 | phytotoxicity rating CHEAL ([26]; 63 g ai/ha): 70

Cn1c(C(F)(F)F)cc(=O)n(-c2cc(C(=O)NN=C(c3ccccc3)c3ccccc3)c(Cl)cc2F)c1=O [Compound 6-15]
phytotoxicity rating IPOHE ([1]; 63 g ai/ha): 15 | phytotoxicity rating IPOHE ([1]; 250 g ai/ha): 95 | phytotoxicity rating AMBEL ([2]; 63 g ai/ha): 70 | phytotoxicity rating AMBEL ([2]; 250 g ai/ha): 95 | phytotoxicity rating CASOB ([3]; 63 g ai/ha): 65 | phytotoxicity rating CASOB ([3]; 250 g ai/ha): 99 | phytotoxicity rating XANST ([4]; 63 g ai/ha): 30 | phytotoxicity rating XANST ([4]; 250 g ai/ha): 60 | phytotoxicity rating ECHCG ([5]; 63 g ai/ha): 0 | phytotoxicity rating ECHCG ([5]; 250 g ai/ha): 35 | phytotoxicity rating SORHA ([6]; 63 g ai/ha): 40 | phytotoxicity rating SORHA ([6]; 250 g ai/ha): 95 | phytotoxicity rating SETVI ([7]; 63 g ai/ha): 75 | phytotoxicity rating SETVI ([7]; 250 g ai/ha): 98 | phytotoxicity rating ABUTH ([8]; 63 g ai/ha): 100 | phytotoxicity rating ABUTH ([8]; 250 g ai/ha): 100 | phytotoxicity rating AMARE ([9]; 63 g ai/ha): 100 | phytotoxicity rating AMARE ([9]; 250 g ai/ha): 100 | phytotoxicity rating DIGSA ([10]; 63 g ai/ha): 85 | phytotoxicity rating DIGSA ([10]; 250 g ai/ha): 99 | phytotoxicity rating CHEAL ([11]; 63 g ai/ha): 100 | phytotoxicity rating CHEAL ([11]; 250 g ai/ha): 100 | crop damage rating CORN ([12]; 63 g ai/ha): 0 | crop damage rating CORN ([12]; 250 g ai/ha): 0 | crop damage rating RICE ([13]; 63 g ai/ha): 0 | crop damage rating RICE ([13]; 250 g ai/ha): 0 | crop damage rating CORN ([14]; 63 g ai/ha): 20 | crop damage rating CORN ([14]; 250 g ai/ha): 25 | crop damage rating RICE ([15]; 63 g ai/ha): 0 | crop damage rating RICE ([15]; 250 g ai/ha): 0 | phytotoxicity rating IPOHE ([16]; 63 g ai/ha): 75 | phytotoxicity rating IPOHE ([16]; 250 g ai/ha): 100 | phytotoxicity rating AMBEL ([17]; 63 g ai/ha): 80 | phytotoxicity rating AMBEL ([17]; 250 g ai/ha): 80 | phytotoxicity rating CASOB ([18]; 63 g ai/ha): 70 | phytotoxicity rating CASOB ([18]; 250 g ai/ha): 75 | phytotoxicity rating XANST ([19]; 63 g ai/ha): 70 | phytotoxicity rating XANST ([19]; 250 g ai/ha): 75 | phytotoxicity rating ECHCO ([20]; 63 g ai/ha): 50 | phytotoxicity rating ECHCO ([20]; 250 g ai/ha): 65 | phytotoxicity rating SORHA ([21]; 63 g ai/ha): 0 | phytotoxicity rating SORHA ([21]; 250 g ai/ha): 15 | phytotoxicity rating SETVI ([22]; 63 g ai/ha): 55 | phytotoxicity rating SETVI ([22]; 250 g ai/ha): 60 | phytotoxicity rating ABUTH ([23]; 63 g ai/ha): 80 | phytotoxicity rating ABUTH ([23]; 250 g ai/ha): 98 | phytotoxicity rating AMARE [24, 27]: 90 | phytotoxicity rating AMARE ([24]; 250 g ai/ha, scale 0-100): 90 | phytotoxicity rating DIGSA ([25]; 63 g ai/ha): 20 | phytotoxicity rating DIGSA ([25]; 250 g ai/ha): 50 | phytotoxicity rating CHEAL ([26]; 63 g ai/ha): 90 | phytotoxicity rating CHEAL ([26]; 250 g ai/ha): 90
